9 molecules from ChEMBL document CHEMBL4043204, “meso-Dihydroguaiaretic acid derivatives with antibacterial and antimycobacterial activity” (Bioorg Med Chem, 2017) can be followed below.

One series deals with Jonesia denitrificans. The experiment in a line: Antibacterial activity against Listeria denitrificans. In kind it is functional.
The next series deals with Bacillus subtilis. The experiment in a line: Antibacterial activity against Bacillus subtilis. Type of series: functional.
A further series deals with Salmonella enterica. Kind of series: Antibacterial activity against Salmonella choleraesuis. In kind it is functional.
The test system of a further series is Providencia rettgeri. Kind of series: Antibacterial activity against NDM-1 positive Providencia rettgeri assessed as inhibition of microbial growth up to 50 ug/ml incubated for 24 hrs by microdilution assay. Type of series: functional. (In general: Broth dilution looks for growth in wells or tubes with falling amounts of substance.)
For the next series, the system named is Vero. The experiment in a line: Cytotoxicity against African green monkey Vero cells assessed as reduction in cell viability incubated for 24 hrs by trypan blue staining based assay. As to conditions: Chlorocebus sabaeus.
The subject of series [1] is Staphylococcus haemolyticus. Kind of series: Antibacterial activity against linezolid-resistant Staphylococcus haemolyticus 2975 assessed as inhibition of microbial growth incubated for 24 hrs by microdilution assay. In kind it is functional. As to conditions: Staphylococcus haemolyticus, 2975, 24 h.
The subject of series [2] is Staphylococcus epidermidis. The experiment in a line: Antibacterial activity against linezolid-resistant Staphylococcus epidermidis (14-583) assessed as inhibition of microbial growth incubated for 24 hrs by microdilution assay. In kind it is functional.
Series [3] has as its system Klebsiella pneumoniae. The experiment in a line: Antibacterial activity against NDM-1 positive Klebsiella pneumoniae (14-3335) assessed as inhibition of microbial growth up to 50 ug/ml incubated for 24 hrs by microdilution assay. In kind it is functional.
Series [4] can be described thus: Selectivity index, ratio of IC50 for cytotoxicity against African green monkey Vero cells to MIC for Mycobacterium tuberculosis H37Rv ATCC 27294. In kind it is toxicity, cell-based. As to conditions: read-out: Selectivity Index.
The test system of series [5] is Klebsiella pneumoniae. Kind of series: Antibacterial activity against extended-spectrum beta-lactamase-positive Klebsiella pneumoniae (14-2081) assessed as inhibition of microbial growth up to 50 ug/ml incubated for 24 hrs by microdilution assay. In kind it is functional.
In series [6] the test system is Escherichia coli. Kind of series: Antibacterial activity against oxacillin-resistant Escherichia coli OXA-48 assessed as inhibition of microbial growth up to 50 ug/ml incubated for 24 hrs by microdilution assay. In kind it is functional.
The test system of a further series is Acinetobacter baumannii. The experiment in a line: Antibacterial activity against carbapenem-resistant Acinetobacter baumannii (12-666) assessed as inhibition of microbial growth up to 50 ug/ml incubated for 24 hrs by microdilution assay. Type of series: functional.
In series [7] the test system is Escherichia coli. Kind of series: Antibacterial activity against extended-spectrum beta-lactamase-positive Escherichia coli (14-2081) assessed as inhibition of microbial growth up to 50 ug/ml incubated for 24 hrs by microdilution assay. Type of series: functional.
The subject of series [8] is Staphylococcus aureus. The experiment in a line: Antibacterial activity against methicillin-resistant Staphylococcus aureus (14-2095) assessed as inhibition of microbial growth incubated for 24 hrs by microdilution assay. Type of series: functional.
Another series deals with Enterococcus faecium. The experiment in a line: Antibacterial activity against vancomycin-resistant Enterococcus faecium (10-984) assessed as inhibition of microbial growth incubated for 24 hrs by microdilution assay. In kind it is functional.
The test system of the next series is Pseudomonas aeruginosa. The experiment in a line: Antibacterial activity against carbapenem-resistant Pseudomonas aeruginosa (13-1391) assessed as inhibition of microbial growth up to 50 ug/ml incubated for 48 hrs by microdilution assay. Type of series: functional.
The nature of series [9]: Selectivity index, ratio of IC50 for cytotoxicity against African green monkey Vero cells to MIC for antibacterial activity against methicillin-resistant Staphylococcus aureus (14-2095).
Series [10] has as its system Stenotrophomonas maltophilia. Kind of series: Antibacterial activity against trimethoprim-sulfamethoxazole-resistant Stenotrophomonas maltophilia assessed as inhibition of microbial growth up to 50 ug/ml incubated for 24 hrs by microdilution assay. Type of series: functional.
Series [11] concerns Mycobacterium tuberculosis. Kind of series: Antimycobacterial activity against Mycobacterium tuberculosis H37Rv ATCC 27294 assessed as inhibition of mycobacterial growth incubated for 2 weeks by MABA method. In kind it is functional. As to conditions: for MIC: Mycobacterium tuberculosis, H37Rv ATCC 27294, 336 h.
For series [12], the system named is Staphylococcus aureus. Kind of series: Antibacterial activity against Staphylococcus aureus. Type of series: functional.
Series [13] has as its system Staphylococcus aureus. The experiment in a line: Antibacterial activity against methicillin-resistant Staphylococcus aureus. In kind it is functional.

The MIC is the lowest concentration found to suppress growth. By IC50 is commonly meant the concentration that inhibits the measured activity by half.

SMILES strings stand for the structures. Converted amounts (≈) assume the structure as drawn. The source made the active and inactive calls. The rule behind the calls is not given here.

Take `COc1cc(C[C@H](C)[C@@H](C)Cc2ccc(O)c(OC)c2)ccc1O`: the MIC was 400 µM (≈ 132 µg/mL) in the series with Jonesia denitrificans, 1600 µM (≈ 529 µg/mL) in the series on Bacillus subtilis and 3100 µM (≈ 1020 µg/mL) against Salmonella enterica.

For `COc1cc(C[C@@H](C)[C@@H](C)Cc2ccc(OCCN3CCCCC3)c(OC)c2)ccc1OCCN1CCCCC1`, the outcome in the series on Providencia rettgeri, in the series with Klebsiella pneumoniae [3], with Klebsiella pneumoniae [5], in the series on Escherichia coli [6], with Acinetobacter baumannii and with Escherichia coli [7] was inactive. Moreover, the result (with Pseudomonas aeruginosa; in series [10]) was inactive. Besides, the IC50 with Vero worked out at 73.2 µg/mL (≈ 132 µM). In addition, the MIC in series [1] was 50 µg/mL; in [2], above 50 µg/mL; with Staphylococcus aureus [8], 50 µg/mL; in the series with Enterococcus faecium, 50 µg/mL; in series [11], 3.12 µg/mL (≈ 5.65 µM). Also, the selectivity ratio in [4] was found to be 23.4. Besides, in series [9], the “Selectivity Index” value was found to be 1.46.

In the case of `COc1cc(C[C@@H](C)[C@@H](C)Cc2ccc(OCCN3CCCCC3)c(OC)c2)ccc1O` (racemic), the outcome in the series on Providencia rettgeri, in the series on Klebsiella pneumoniae [3], in the series on Klebsiella pneumoniae [5], with Escherichia coli [6], in the series with Acinetobacter baumannii and in the series with Escherichia coli [7] was inactive. In addition, the outcome (with Pseudomonas aeruginosa; in series [10]) was inactive. In the series on Vero, the IC50 was 62.6 µg/mL (≈ 142 µM). Further, the MIC in series [1] was 50 µg/mL; in series [2] it was 50 µg/mL; with Staphylococcus aureus [8], 50 µg/mL; in the series with Enterococcus faecium it was 50 µg/mL; in series [11], 12.5 µg/mL (≈ 28.3 µM). The selectivity ratio in [4] is 5.01. In addition, the “Selectivity Index” value in series [9] is given as 1.25.

`COc1cc(C[C@@H](C)[C@@H](C)Cc2ccc(OC(C)=O)c(OC)c2)ccc1O` (racemic): the outcome in the series on Providencia rettgeri, in the series with Klebsiella pneumoniae [3], with Klebsiella pneumoniae [5], in the series on Escherichia coli [6], in the series on Acinetobacter baumannii and with Escherichia coli [7] was inactive. For the same molecule, the outcome (with Pseudomonas aeruginosa; in [10]) was inactive. Further, the IC50 in the series with Vero was found to be 112 µg/mL (≈ 300 µM). For the same molecule, the MIC in series [1] was above 50 µg/mL; in [2], above 50 µg/mL; in the series on Staphylococcus aureus [8] it was 25 µg/mL; in the series with Enterococcus faecium, above 50 µg/mL; in [11], 50 µg/mL (≈ 134 µM). The selectivity ratio in series [4] was found to be 2.23. Also, in series [9], the “Selectivity Index” value is listed as 4.46. Besides, in series [11], the “-logMIC” value is 4.07.

Turning to `COc1cc(C[C@@H](C)[C@@H](C)Cc2ccc(OC(=O)c3cnccn3)c(OC)c2)ccc1O` (racemic), the result in the series on Providencia rettgeri, in the series on Klebsiella pneumoniae [3], with Klebsiella pneumoniae [5], in the series on Escherichia coli [6], with Acinetobacter baumannii and in the series on Escherichia coli [7] was inactive. Also, the result (in the series on Pseudomonas aeruginosa; in series [10]) was inactive. Also, in the series with Vero, the IC50 was determined as 43.3 µg/mL (≈ 99.3 µM). The MIC was above 50 µg/mL in [1]; above 50 µg/mL in [2]; 50 µg/mL in the series on Staphylococcus aureus [8]; above 50 µg/mL in the series on Enterococcus faecium; 50 µg/mL (≈ 115 µM) in series [11]. In series [4], the selectivity ratio was 0.86. Besides, the “Selectivity Index” value in series [9] came out at 0.87. For the same molecule, in series [11], the “-logMIC” value is recorded as 4.07.

Consider `COc1cc(C[C@@H](C)[C@@H](C)Cc2ccc(OC(=O)c3ccccn3)c(OC)c2)ccc1O` (racemic), for which the outcome with Providencia rettgeri, in the series with Klebsiella pneumoniae [3], with Klebsiella pneumoniae [5], in the series with Escherichia coli [6], in the series with Acinetobacter baumannii and in the series on Escherichia coli [7] was inactive. For the same molecule, the outcome (with Pseudomonas aeruginosa; in series [10]) was inactive. Further, the IC50 in the series on Vero is 65 µg/mL (≈ 149 µM). Further, the MIC in series [1] is above 50 µg/mL; in [2], above 50 µg/mL; in the series with Staphylococcus aureus [8] it was 25 µg/mL; in the series on Enterococcus faecium it was above 50 µg/mL; in series [11] it was 50 µg/mL (≈ 115 µM). In series [4], the selectivity ratio was 1.3. Also, the “Selectivity Index” value in [9] was 2.6. In addition, in series [11], the “-logMIC” value stood at 3.87.

For `COc1cc(C[C@@H](C)[C@@H](C)Cc2ccc(OC)c(OC)c2)ccc1O` (racemic), the outcome in the series with Providencia rettgeri, in the series with Klebsiella pneumoniae [3], in the series with Klebsiella pneumoniae [5], in the series on Escherichia coli [6], with Acinetobacter baumannii and with Escherichia coli [7] was inactive. The result (with Pseudomonas aeruginosa; in series [10]) was inactive. Also, the IC50 in the series with Vero came out at 47.8 µg/mL (≈ 139 µM). The MIC in series [1] is above 50 µg/mL; in series [2], above 50 µg/mL; in the series with Staphylococcus aureus [8] it was 25 µg/mL; in the series with Enterococcus faecium it was above 50 µg/mL; in series [11], 50 µg/mL (≈ 145 µM). For the same molecule, the selectivity ratio in series [4] was 0.96. The “Selectivity Index” value in series [9] turned out to be 1.91. Besides, the “-logMIC” value in series [11] is recorded as 3.94.

On to `COc1cc(C[C@@H](C)[C@H](C)Cc2ccc(O)c(OC)c2)ccc1O` [(-)-DIHYDROGUAIARETICACID], for which the MIC came to 400 µM (≈ 132 µg/mL) in the series on Jonesia denitrificans and 1600 µM (≈ 529 µg/mL) in the series with Bacillus subtilis.

As to `COc1cc(C[C@@H](C)[C@@H](C)Cc2ccc(O)c(OC)c2)ccc1O` [MESODIHYDROGUAIARETIC ACID], the MIC turned out to be 1600 µM (≈ 529 µg/mL) in the series on Jonesia denitrificans; 1600 µM (≈ 529 µg/mL) in the series on Staphylococcus aureus [12]; 1600 µM (≈ 529 µg/mL) in the series on Bacillus subtilis; 50 µg/mL (≈ 151 µM) against Staphylococcus aureus [13]; 50 µg/mL (≈ 151 µM) in [11].
